# In patent publication US7649002B2, “(3,5-dimethylpiperidin-1yl)(4-phenylpyrrolidin-3-yl)methanone derivatives as MCR4 agonists” (Pfizer Inc, priority 2004, dated 2010):
# Assays:
# [1] = biological target: T1, human MCR5 receptor (Homo sapiens, UniProt P33032); test: MCR5 standard functional assay (Protocol D): CHO-K1-MC5R-CRE-β-lactamase reporter; format: cell-based; conditions: for EC50: Protocol D
# T1 construct: expressed in transfected cells
# Source text: These cell lines were engineered using protocols akin to those outlined by Zaccolo et al (Zaccolo, M., (2000) Nature, 2(1); 25-29). Compound-induced activation of the MCR5 or MCR4 receptors in these two cell lines stimulated the production, and intracellular accumulation, of the enzyme β-lactamase. The quantity of β-lactamase enzyme produced was directly proportional to the degree to which the test compound activated the MCR5 or MCR4 receptors present on these cells and was quantified using the P-lactamase gene reporter analysis kit that is commercially available from Invitrogen Life Technologies. An in-depth description of this technology and assay protocols are available from the Invitrogen web site (www.invitrogen.com). The protocol listed below provides a summary of that assay methodology. The quantity of β-lactamase enzyme produced by compound-induced activation of the MCR5 or MCR4 receptors expressed in these cell lines was quantified using a LjI Biosystems Analyst™ HT 96.384 plate reader set to excite at a wave length of 405 nm, and measure the energy emitted at wave lengths of 450 nm and 530 nm. Cellular responses were quantified by dividing the measured energy emitted at a wavelength of 450 nm by the measured energy emitted at a wavelength of 530 nm. […] CCF4-AM was dissolved in 100% DMSO to give a final solution concentration of 1 mM. This solution was termed Solution A. Probenecid was dissolved in 200 mM NaOH to give a final solution concentration of 200 mM. This solution was termed Solution D. Composition of the β-lactamase assay dye solution: for 1072 μL of assay dye solution combine: 12 μL of Solution A, 60 μL of Solution B, 925 μL of Solution C and 75 μL of Solution D. […] Cells were grown in T225 vent cap flasks containing 50 ml of growth medium and maintained in a cell incubator at a temperature of 37° C. and in an environment containing 5% CO2. The composition of the growth medium for the CHO-K1-MC5R-CRE-β-lactamase was 90% v/v DMEM supplemented with; Glutamax-1, 25 mM HEPES, 10% v/v foetal calf serum (FCS), 1 mM sodium pyruvate, 0.1 mM non essential amino acids and 800 μg/ml genetic in. For the CHO-K1-MC4R-CRE-β-lactamase this growth media was further supplemented with […] Zeocin. Cells were harvested when they reached 80-90% confluency by first removing the existing growth medium and then washing with PBS that had been pre-warmed to a temperature of 37° C. This PBS was then removed and 5 ml of cell dissociation fluid added to the flask. These cells were incubated for 5 minutes in a cell incubator set at a temperature of 37° C. and in an environment containing 5% CO2 to detach the cells. When cells were detached, pre-warmed growth media was added, the cells re-suspended and mixed gently to achieve a single cell suspension by pipetting. This cell suspension was then used for experimentation, or transferred into a new T225 flask to perpetuate the cell culture. On the first day of the assay cells were harvested as described above. […] For each assay the cell plates were then retuned to a cell incubator maintained at a temperature of 37° C. and in an environment containing 5% CO2 overnight before performing the assay on the second assay day. […] For the MCR4 improved functional assay methodology the solution of cyclohexamide was not added. Subsequently, 10 μL of the test compound solution was transferred to the assay plate. […] After this incubation period the plate was removed from the incubator, 10 μL of the […] assay dye solution was added to each well and then the plate returned to the cell incubator.
# [2] = test system: spontaneous penile erection in the conscious rat; test: Spontaneous penile erection in the conscious rat (telemetric intracavernosal pressure); format: in vivo; conditions: for maximum effective dose: s.c.
# Procedure: MCR4 in vivo data for the compound of Example 1 was assessed by selective activation of melanocortin MCR4 receptors using the methodology assessing spontaneous penile erection in the conscious rat.
# Erectile responses were recorded by measuring intracavernosal pressure using a surgically implanted telemetric device (TA11PA-C40, 8 mm catheter, modified 3 mm tip, available from Data Sciences International Inc.). An increase in intracavernosal pressure is indicative of penile erection, as an increase in intracavernosal pressure is an essential hemodynamic event during the initiation and maintenance of penile erection. The specific details of the surgical procedures, data acquisition and analysis used herein to measure increases in intracavernosal pressure can be found in detail in Bernabe J., Rampin O., Sachs B. D., Giuliano F., “Intracavernous pressure during erection in rats: an integrative approach based on telemetric recording”, Am. J. Physiol. 1999 February; 276 (2 Pt 2):R441-9.
# The test animals (rats) (during the dark cycle) were habituated for 18 hours before baseline assessment of erectile function. Prior to administration of the test agent the baseline erectile activity (B) was assessed for the vehicle for 10 minutes using telemetric recording of intracavernosal pressure. Following subcutaneous administration of the compound of Example 1 (in the same vehicle), penile erections were assessed (using telemetric recording of intracavernosal pressure) over 10 minute periods, at intervals of 30, 60, and 90 minutes post dosage.
# T1 sequence (P33032 whole entry): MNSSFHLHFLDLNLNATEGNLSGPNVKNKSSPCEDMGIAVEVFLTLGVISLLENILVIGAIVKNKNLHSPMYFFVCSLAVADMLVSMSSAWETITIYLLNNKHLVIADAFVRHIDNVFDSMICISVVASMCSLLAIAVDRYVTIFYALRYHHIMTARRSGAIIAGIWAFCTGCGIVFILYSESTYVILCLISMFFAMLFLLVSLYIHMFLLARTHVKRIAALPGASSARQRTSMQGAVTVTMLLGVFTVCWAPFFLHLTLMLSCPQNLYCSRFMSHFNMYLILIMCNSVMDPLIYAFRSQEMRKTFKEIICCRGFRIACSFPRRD
SMILES,"Selectivity MCR5/MCR4 ([1]; Table 6, MCR4 by Protocol E)",EC50 ([1]; Table 6) [µM],also measured
"C[C@@H]1CN(C(=O)[C@@H]2CN(C(C)(C)C)C[C@H]2c2ccc(F)cc2F)C[C@H](C)[C@@]1(O)c1ccccc1.Cl [Example 5, (3R,4R,5S)-1-{[(3S,4R)-1-tert-Butyl-4-(2,4-difluorophenyl)pyrrolidin-3-yl]carbonyl}-3,5-dimethyl-4-phenylpiperidin-4-ol hydrochloride]",285,2.74,–
"CC(C)N1C[C@@H](C(=O)N2C[C@@H](C)[C@](O)(c3ccccc3)[C@@H](C)C2)[C@H](c2ccc(F)cc2F)C1.Cl [Example 6, (3R,4R,5S)-1-{[(3S,4R)-4-(2,4-Difluorophenyl)-1-isopropylpyrrolidin-3-yl]carbonyl}-3,5-dimethyl-4-phenylpiperidin-4-ol hydrochloride]",83,1.59,–
"C[C@@H]1CN(C(=O)[C@@H]2CN(C(C)(C)C)C[C@H]2c2ccc(F)cc2F)C[C@H](C)[C@@]1(O)c1ccc(Cl)cc1.Cl [Example 13, (3R,4R,5S)-1-{[(3S,4R)-1-tert-butyl-4-(2,4-difluorophenyl)pyrrolidin-3-yl]carbonyl}-4-(4-chlorophenyl)-3,5-dimethylpiperidin-4-ol hydrochloride]",624,16.9,–
"C[C@@H]1CN(C(=O)[C@@H]2CN(c3ccccn3)C[C@H]2c2ccc(F)cc2F)C[C@H](C)[C@@]1(O)c1ccccc1.Cl [Example 31, (3R,4R,5S)-1-{[(3S,4R)-4-(2,4-difluorophenyl)-1-pyridin-2-ylpyrrolidin-3-yl]carbonyl}-3,5-dimethyl-4-phenylpiperidin-4-ol hydrochloride]",266,0.956,–
"C[C@@H]1CN(C(=O)[C@@H]2CNC[C@H]2c2ccc(F)cc2F)C[C@H](C)[C@@]1(O)c1ccc(F)cc1.Cl [Example 12, (3R,4R,5S)-1-{[(3S,4R)-4-(2,4-difluorophenyl)pyrrolidin-3-yl]carbonyl}-4-(4-fluorophenyl)-3,5-dimethylpiperidin-4-ol hydrochloride]",267,20,–
"C[C@@H]1CN(C(=O)[C@@H]2CN(C(C)(C)C)C[C@H]2c2ccc(F)cc2F)C[C@H](C)[C@@]1(O)c1ccccc1 [Example 1, (3R,4R,5S)-1-{[(3S,4R)-1-tert-Butyl-4-(24-difluorophenyl)pyrrolidin-3-yl]carbonyl}-3,5-dimethyl-4-phenylpiperidin-4-ol]",285,–,"Selectivity MCR5/MCR4 ([1]; Table 5, MCR4 by Protocol C): 268; EC50 ([1]; Table 5): 6.71 µM; maximum effective dose ([2]; additional, more detailed study, FIG. 2, conscious rat): 10 µg/kg; erectile activity (number of erections over a 10 minute period) versus baseline (treatment vehicle) ([2]; additional, more detailed study, FIG. 2, starting 30 minutes post dosage, 1, 10 and 100 μg/kg s.c.): increases the erectile activity versus baseline erectile activity; number of penile erections ([2]; conscious rat, subcutaneously (s.c.)): dose dependent increase in the number of penile erections; maximum effective dose ([2]; preliminary study, FIG. 1, conscious rat): 1 µg/kg; erectile activity (number of erections over a 10 minute period) versus baseline ([2]; preliminary study, FIG. 1, starting 60 minutes post dosage, 1, 10 and 100 μg/kg s.c.): increases the erectile activity versus baseline erectile activity"
"C[C@@H]1CN(C(=O)[C@@H]2CN(c3cccnn3)C[C@H]2c2ccc(F)cc2F)C[C@H](C)[C@@]1(O)c1ccccc1.Cl [Example 35, (3R,4R,5S)-1-{[(3S,4R)-4-(2,4-difluorophenyl)-1-pyridazin-3-ylpyrrolidin-3-yl]carbonyl}-3,5-dimethyl-4-phenylpiperidin-4-ol hydrochloride]","13,333",20,–
